# Read-outs that look alike come from different tables or passages of the source.
# Legend:
# HEK295 cells = details: for Main test: maximum Euclidian distance: NIR, plateau value of curve fit
# Excerpt: The subject of the investigation was: • HEK295 cells, provided by Microbify, in a concentration of 2.2*10^5 cells/ml in medium, grown confluently, i.e. adherently grown cells that have formed a continuous monolayer/cell layer, in the NIR measuring vessels with transflectance stamp made of stainless steel from BrukerOptics • Use of nutrient medium DMEM (Dulbecco's Modified Eagle's Medium), with high glucose content, HEPES buffer, without phenol red indicator. Medium was purchased ready-to-use from ThermoFisher, catalog number 21063045, and mixed with 10% fetal calf serum (v/v) and 1% penicillin-streptomycin solution (v/v). • Cell culture for 48 hours before measurement directly in the measuring vessel • Addition of several concentrations of ethanol: 0% (control), 3%, 6% (each v/v). […] Before the experiment began, the cells were confluent, i.e. 100% viable • Measurement of cell changes via NIR over a period of […]
# The measuring instrument used was a near-infrared spectroscopy device microPHAZIR GP (Thermo Fisher Scientific Inc.) with a wave number range: 6266 cm^−1 to 4172 cm^−1
# Data pretreatment of the NIR spectra: No special pretreatment was carried out, spectra were processed directly.
# The following calculation parameters were chosen: Euclidean distance
# The cells were removed from the incubator and treated with a chemical stress factor (ethanol) at the concentrations mentioned. Three independent replicates were prepared with 0%, 3% and 6% ethanol and in a narrow measured at intervals of time (every 2 minutes) over a total period of 6 hours via NIR.
# From the measured spectra, the Euclidean distances were calculated according to the method of the invention, averaged per measurement time and the fitting of kinetic curves (cf. Application example 3; identical procedure). […] The data points are the mean values of 3 independent replicates, each measured 3 times, thus there are 9 measurement points per point. The error bars are the standard error of the mean. Also shown are the determination points for Km (time at which 50% of the plateau value was reached), K90 (time at which 90% of the plateau value was reached), and K95 (time at which 95% of the plateau value was reached).
# in vitro = details: human, HEK295 cells
structure (smiles),measurement,setting,value
CCO [ethanol],Km (time at which 50% of the plateau value was reached),HEK295 cells; 3% EtOH,~ 13 min
same,Main test: maximum Euclidian distance,HEK295 cells; 3% ethanol (v/v),0.194
same,Km (time at which 50% of the plateau value was reached),HEK295 cells; 6% EtOH,~ 11 min
same,Main test: maximum Euclidian distance,HEK295 cells; 6% ethanol (v/v),0.272
same,viability at 2.5 % ethanol,in vitro,68%
same,viability at 3 % ethanol,in vitro,70.8%
same,viability at 5 % ethanol,in vitro,65.5%
same,viability at 6 % ethanol,in vitro,41.4%
same,viability at 7.5 % ethanol,in vitro,22.5%
same,viability at 10 % ethanol,in vitro,0%

# — patent US12712053B2, “Determining the stability of a substance or substance mixture” (BIONORICA SE, priority 2022, dated 2026)
